How the values were obtained:
NLRP6 inflammasome = experiment: Colon explants cultured with metabolites (IL-18 ELISA, caspase-1 immunoblot, gene expression); format: cell-based, mouse; settings: for IL-18 protein levels: Nlrp3-/- explants; for IL-18 suppression with increasing doses: colonic explant-based validation screen; for IL-18 transcript (mRNA) levels / caspase-1 cleavage / processing: colonic explants; for caspase-1 cleavage / processing: 12 hours incubation, immunoblot p45/p20; for suppression of IL-18 secretion, metabolite screen: cultured WT colon explants
Description: Colons were excised and washed thoroughly with PBS, homogenized in RIPA buffer containing protease inhibitors, incubated for 20 min in 4° C. and centrifuged for 20 min, 14,000 rpm at 4° C. Samples were separated on 15% acrylamide gels and transferred onto nitrocellulose membranes. Western blot analysis was performed using anti-caspase 1 p20 polyclonal antibody (Adipogen, AG-20B-0042B-C100) and Goat anti mouse antibody (Jackson ImmunoResearch, 115-035-003). Band density was calculated using ImageJ software. Colon pieces, 0.5 cm long, from the proximal colon were removed, rinsed with PBS, and weighed. The tissue explants were cultured for 24 hrs in DMEM medium containing 10% FBS, L-glutamine, penicillin, and streptomycin at 37° C. Culture medium was collected, centrifuged and the resulting supernatant stored in aliquots at -20° C. Concentrations of IL-18 in the serum or culture supernatants were measured using ELISA. […] Samples were then washed and plates were incubated with anti-mouse IL-18-biotin antibody ([…]-6 MBL) for 1 hour and HRP-Avidin (BioLegend) for 1 hour before quantification. […] For AMP induction in-vitro, 3 μg IL-18 were added to colon explants for 7 hours, then the explants were maintained in RNAlater and RNA was extracted. Tissues were preserved in RNAlater solution (Ambion) and subsequently homogenized in Tri Reagent (Fox et al.). RNA was purified according to the manufacturer's instructions. Two microgram of total RNA was used to generate cDNA (HighCapacity cDNA Reverse Transcription kit; Applied Biosystems). RealTime-PCR was performed using gene-specific primer/probe sets (Applied Biosystems) and Kapa Probe Fast qPCR kit (Kapa Biosystems) on a Viia7 instrument (Applied Biosystems). PCR conditions were 95° C. for 20 s, followed by 40 cycles of 95° C. for 3 s and 60° C. for 30 s. Data were analyzed using the deltaCt method with hprt serving as the reference housekeeping gene.

commensal bacteria = experiment: Anaerobic microbiota cultures supplemented with metabolites; set-up: species or system mouse; settings: anaerobic culturing
intestinal microbiota = experiment: 16S analysis of microbiota of mice given metabolites in drinking water; format: in vivo, mouse
From the text: Frozen fecal samples were processed for DNA isolation using the MoBio PowerSoil kit according to the manufacturer's instructions. For the 16S rRNA gene PCR amplification, ing of the purified fecal DNA was used for PCR amplification. Amplicons spanning the variable region 1/2 (V1/2) of the 16S rRNA gene were generated by using the following barcoded primers: Fwd 5′-XXXXXXXXAGAGTTTGATCCTGGCTCAG-3′ (SEQ ID NO: 1), Rev 5′-[…]-3′ (SEQ ID NO: 2), where X represents a barcode base. The reactions were subsequently pooled and cleaned (PCR clean kit, Promega), and the PCR products were then sequenced on an Illumina MiSeq in 500 bp paired-end method. The reads were then processed using the QIIME (Quantitative Insights Into Microbial Ecology, www(dot)qiime(dot)org) analysis pipeline as described (Caporaso et al., 2010; Elinav et al., 2011). In brief, fasta quality files and a mapping file indicating the barcode sequence corresponding to each sample were used as inputs, reads were split by samples according to the barcode, taxonomical classification was performed using the RDP-classifier, and an OTU table was created. Closed-reference OTU mapping was employed using the Greengenes database. Rarefaction was used to exclude samples with insufficient count of reads per sample. Sequences sharing 97% nucleotide sequence identity in the V2 region were binned into operational taxonomic units (97% ID OTUs). For beta-diversity, weighted unifrac measurements were plotted according to the two principal coordinates based on 1,000 reads per sample. The OTU tables used for our analyses are made accessible online.

Structure (SMILES) | IL-18 protein levels (NLRP6 inflammasome) | IL-18 suppression with increasing doses (NLRP6 inflammasome) | IL-18 transcript (mRNA) levels (NLRP6 inflammasome) | caspase-1 cleavage / processing (NLRP6 inflammasome) | suppression of IL-18 secretion, metabolite screen (NLRP6 inflammasome) | composition of anaerobic microbiota cultures (commensal bacteria) | composition of the intestinal microbiota (intestinal microbiota; WT mice) | AMPs (Ang4) expression (NLRP6 inflammasome; WT explants cultured for 8 hours) | dependence of IL-18 induction on NLRP6 / NLRP3 (NLRP6 inflammasome; WT, Nlrp6-/- and Nlrp3-/- colon explants) | inflammasome suppression (IL-18 production) by spermine or histamine upon concomitant taurine (NLRP6 inflammasome; colon explants cultured with histamine and spermine, with addition of taurine) | IL-18 induction (NLRP6 inflammasome; sterile WT colonic explants, metabolite screen and increasing doses) | composition of the intestinal microbiota (intestinal microbiota; Asc-/- or Nlrp6-/- mice)
NCCc1c[nH]cn1 [histamine] | decreased | concentration-dependent IL-18 suppressive functions | no change | reduced | strongest suppressors | did not feature significant compositional alterations | induced compositional changes | – | – | – | – | –
NCCCNCCCCNCCCN [spermine] | decreased | concentration-dependent IL-18 suppressive functions | no change | reduced | strongest suppressors | did not feature significant compositional alterations | induced compositional changes | – | – | – | – | –
NCCS(=O)(=O)O [taurine] | – | – | – | enhanced | – | did not feature significant compositional alterations | induced compositional changes | induced upregulation | dependent on NLRP6, but not on NLRP3 | rescued | strongest dose-dependent inductive activity | did not occur
